# In US20090118253A1, “COMPOSITIONS AND METHODS FOR TREATING DYSFUNCTIONAL UTERINE BLEEDING” (REPROS THERAPEUTICS INC., priority 2007, published 2009):
# How the values were obtained:
# [1] = Serum corticosterone in rats; details: for differences in serum corticosterone between groups: CDB-4124 10 or 20 mg/kg, RU 486 10 mg/kg, progesterone 10 mg/kg
# [2] = Estrogenic, androgenic, anti-estrogenic and anti-androgenic activities
# Serum cortisol in rats = assay type: in vivo, rat; details: 10 mg/kg, 21 days of chronic dosing
# Description: These higher levels were in the range of 3-4 ug/dl (30-40 ng/ml).
# [3] = target: T1, glucocorticoid receptor (rbGR) (Oryctolagus cuniculus, UniProt P59667); assay: Glucocorticoid receptor binding / anti-glucocorticoid receptor activity; design: species or system rabbit
# T1 construct: cytosol containing PR or GR were prepared in TEGMD buffer; from tissue; host or cells: thymus of estradiol-primed immature rabbits (cytosol)
# T1 sequence (P59667 1-772): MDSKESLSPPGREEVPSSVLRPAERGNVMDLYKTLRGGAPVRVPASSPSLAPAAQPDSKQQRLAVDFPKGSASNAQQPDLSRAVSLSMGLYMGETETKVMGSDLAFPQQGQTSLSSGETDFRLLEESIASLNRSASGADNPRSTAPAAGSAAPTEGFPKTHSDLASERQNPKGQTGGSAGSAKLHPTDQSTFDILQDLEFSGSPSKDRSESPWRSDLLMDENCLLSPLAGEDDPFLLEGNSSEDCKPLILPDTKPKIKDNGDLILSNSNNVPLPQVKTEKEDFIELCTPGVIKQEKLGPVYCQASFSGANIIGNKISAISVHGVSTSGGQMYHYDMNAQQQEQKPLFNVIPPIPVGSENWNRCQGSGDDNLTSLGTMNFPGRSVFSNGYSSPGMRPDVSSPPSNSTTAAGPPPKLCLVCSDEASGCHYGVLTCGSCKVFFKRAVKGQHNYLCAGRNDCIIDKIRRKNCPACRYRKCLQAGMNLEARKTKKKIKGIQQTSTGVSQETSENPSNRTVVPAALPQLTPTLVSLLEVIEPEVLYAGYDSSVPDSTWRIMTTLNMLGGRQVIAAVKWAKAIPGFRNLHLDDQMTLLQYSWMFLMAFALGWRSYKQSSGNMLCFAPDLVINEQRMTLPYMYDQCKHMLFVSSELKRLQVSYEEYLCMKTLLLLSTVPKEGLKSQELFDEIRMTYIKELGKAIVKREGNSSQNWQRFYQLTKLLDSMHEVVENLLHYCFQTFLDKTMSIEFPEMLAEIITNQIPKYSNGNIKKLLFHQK
# Description: Certain antiprogestins were tested in receptor-binding assays for their ability to bind rabbit progesterone receptor (rbPR) and glucocorticoid receptor (rbGR). […] For PR binding, the cytosol was incubated with 6 nM 1,2-[^3H]progesterone (50.0 Ci/mmole) and competitors were added at concentrations from 2 to 100 nM. For binding to GR, the cytosol was incubated with 6 nM 6,7-[^3H]-dexamethasone (40 Ci/mmol) and test compounds were added at concentrations from 20 to 100 nM. After overnight incubation at 4 C, bound and unbound [^3H] steroids were separated by addition of dextran-coated charcoal and centrifugation at 2100×g for 15 min at 4 C. Supernatants containing the [3H]-steroid receptor complexes were decanted into vials containing 4 ml Optifluor (Packard Instrument Co.), vortexed, equilibrated in a liquid scintillation counter for 30 minutes and then counted for 2 minutes. […] The standards for the PR and GR assays were unlabeled progesterone and dexamethasone, respectively.
# [4] = system: progesterone-induced endometrial glandular proliferation in rabbit uterus; assay: anti-McGinty and anti-Clauberg assays in the rabbit uterus; assay type: in vivo; details: for rabbit Biol. Act.: average of anti-McGinty and anti-Clauberg results relative to CDB-2914 (=1.00)
# Source text: Also given in Table 1 are the relative biological activities of the same compounds in the rabbit uterus by the anti-McGinty and anti-Clauberg assays. Compound CDB-2914 (listed at the end of the Table) was used as the control or reference compound (rabbit Biological Activity=1.00) for these experiments because results of experiments using CDB-2914 have been published before (Hild-Petito et al., 1996; Passaro et al., 1997; Reel et al., 1998; Lamer et al., 2000). For the anti-McGinty test, immature female rabbits received a subcutaneous injection of 5 μg estradiol in 10% ethanol/sesame oil daily for 6 consecutive days. On day 7, animals underwent sterile abdominal surgery to ligate a 3-4 cm segment of both uterine horns. The test compound in appropriate solvent was injected intraluminally into the ligated segment of one uterine horn and vehicle alone into the other. A stimulating dose of progesterone (267 μg/day) was administered subcutaneously to each rabbit daily for the next three days to induce endometrial proliferation. All animals were sacrificed at day 10 for removal of the uterus where a segment central to the ligatures was removed and fixed in 10% neutral buffered formalin and submitted for histological processing. Five micron sections stained with hematoxylin and cosin were evaluated microscopically for the degree of endometrial glandular proliferation. The percent inhibition of endometrial proliferation for each rabbit was calculated and the mean of the group of five animals recorded. For the Anti-Clauberg test, immature female rabbits received a subcutaneous injection of 5 μg estradiol in 10% ethanol/sesame oil daily for 6 consecutive days. On day 7, animals received progesterone by subcutaneous injection (160 μg/day) and the experimental compound in appropriate vehicle orally or subcutaneously for five consecutive days. One group of rabbits received progesterone only. Twenty-four hours after the last dose, all animals were sacrificed for removal of the uterus which was cleaned of all fat and connective tissue, weighed to the nearest 0.2 mg and placed in 10% neutral buffered formalin for subsequent histological processing. Five micron sections stained with hematoxylin and eosin were evaluated microscopically for the degree of endometrial glandular proliferation. The percent inhibition of endometrial proliferation at each dose level of the test compound was derived by comparison with progesterone-stimulated animals alone. The data presented in Table 1 (rabbit Biol. Act.) reflects the average of the results obtained for each compound by the anti-McGinty and anti-Clauberg assays relative to CDB-2914.
# [5] = system: rabbit progesterone receptor (rbPR) and glucocorticoid receptor (rbGR); assay: Receptor-binding assays, ratio of relative binding affinities rbPR/rbGR; details: ratio of relative binding affinities (RBA = EC50 of standard/EC50 of test compound x 100) for rbPR and rbGR
# Description: Certain antiprogestins were tested in receptor-binding assays for their ability to bind rabbit progesterone receptor (rbPR) and glucocorticoid receptor (rbGR). Briefly, cytosol containing PR or GR were prepared in TEGMD buffer (10 mM Tris, pH 7.2, 1.5 mM EDTA, 0.2 mM sodium molybdate, 10% glycerol, 1 mM DTT) from uterus or thymus, respectively, of estradiol-primed immature rabbits. For PR binding, the cytosol was incubated with 6 nM 1,2-[^3H]progesterone (50.0 Ci/mmole) and competitors were added at concentrations from 2 to 100 nM. For binding to GR, the cytosol was incubated with 6 nM 6,7-[^3H]-dexamethasone (40 Ci/mmol) and test compounds were added at concentrations from 20 to 100 nM. After overnight incubation at 4 C, bound and unbound [^3H] steroids were separated by addition of dextran-coated charcoal and centrifugation at 2100×g for 15 min at 4 C. Supernatants containing the [3H]-steroid receptor complexes were decanted into vials containing 4 ml Optifluor (Packard Instrument Co.), vortexed, equilibrated in a liquid scintillation counter for 30 minutes and then counted for 2 minutes. The EC50 (Effective Concentration) for each standard curve and each of the compound curves was determined by entering the counting data into a four parameter sigmoidal computer program (RiaSmart® Immunoassay Data Reduction Program, Packard Instrument Co., Meriden, Conn.). Relative binding affinity (RBA) for each compound was calculated using the following equation: EC50 of standard/EC50 of test compound×100. The standards for the PR and GR assays were unlabeled progesterone and dexamethasone, respectively. The results of these experiments are summarized in Table 1, as a ratio of the relative binding affinities of each compound for the rbPR and rbGR receptors (rbPR/rbGR).
# [6] = system: Cynomolgus monkey endometrial epithelium, uterus stroma and breast; assay: TUNEL apoptosis in cynomolgus monkey tissue; assay type: in vivo, Cynomolgus monkeys (Macaca fascicularis); details: week 36, percent apoptotic cells
# Description: Apoptosis was assessed in tissue from the same animals on slides by the terminal deoxynucleotidyl transferase mediated dUTP-biotin nick end labeling (TUNEL) technique.
# [7] = Urinary estrogen levels (follicular phase) in cynomolgus monkeys; assay type: in vivo, Cynomolgus monkeys (Macaca fascicularis); design: Urinary estrogen, follicular phase, Mean: unit not given here; details: for Urinary estrogen, follicular phase, Mean: CDB-4124 or RU-486 oral 1.0 mg/kg/day, Lupron IM once per month
# Description: Cynomolgus monkeys (Macaca fascicularis) (n=14) were treated orally for 36 weeks with CDB-4124 or RU-486 at 1.0 mg/kg/day or with placebo (control). Another group (n=14) received Lupron® IM once per month. Urinary progesterone levels were measured for each animal for one month during the middle of the study (weeks 14-17) and for the last month of the study (weeks 33-36). The results are presented below:
# Urinary estrogen levels were measured for each animal of Example 6 for one month during the middle of the study (weeks 14-17) and for the last month of the study (weeks 33-36). The follicular phase results are based on 35 baseline ovulating cycles.
# [8] = system: Cynomolgus monkey endometrial epithelia, uterus stroma and breast; assay: BrdU incorporation, tissue proliferation in cynomolgus monkeys; assay type: in vivo, Cynomolgus monkeys (Macaca fascicularis); details: week 36, % cells positive for incorporation of BrdU, three animals per group
# Description: At week 36, three animals from each group of Example 6 were injected within 24 hours of sacrifice with the thymidine analog bromodeoxyuridine (BrdU), a marker of proliferating cells and their progeny, to assess tissue proliferation. Full thickness uterine sections were stained and examined microscopically for evidence of proliferation in terms of the % cells positive for incorporation of BrdU: […]
# [9] = Urinary progesterone levels (luteal phase) in cynomolgus monkeys; assay type: in vivo, Cynomolgus monkeys (Macaca fascicularis); details: n=14 per group; CDB-4124 or RU-486 oral 1.0 mg/kg/day for 36 weeks; Lupron IM once per month
# Description: Cynomolgus monkeys (Macaca fascicularis) (n=14) were treated orally for 36 weeks with CDB-4124 or RU-486 at 1.0 mg/kg/day or with placebo (control). Another group (n=14) received Lupron® IM once per month. Urinary progesterone levels were measured for each animal for one month during the middle of the study (weeks 14-17) and for the last month of the study (weeks 33-36).
smiles,measurement,setting,value
CC(=O)[C@H]1CC[C@H]2[C@@H]3CCC4=CC(=O)CC[C@]4(C)[C@H]3CC[C@]12C [progesterone],differences in serum corticosterone between groups,[1],No differences
same,levels of corticosterone in animals treated with exogenous progesterone,"[1]; after 21 days of treatment, p=0.029, not verified at sacrifice",lowered
"CC(=O)OCC(=O)[C@@]1(OC(C)=O)CCC2C3CCC4=CC(=O)CCC4=C3C(c3ccc(N(C)C)cc3)C[C@@]21C (stereo partly drawn) [CDB-4059, 21-acetoxy-17α-acetoxy-11β-(4 N,N-dimethylaminophenyl)-19-norpregna-4,9-diene-3,20-dione]","estrogenic, androgenic, anti-estrogenic, and anti-androgenic activities",[2],"lack estrogenic, androgenic, anti-estrogenic, and anti-androgenic activities"
same,levels of serum cortisol versus control group,Serum cortisol in rats,significantly higher
same,anti-glucocorticoid receptor activity / glucocorticoid receptor binding,[3],minimal anti-glucocorticoid receptor activity
same,rabbit Biol. Act.,[4],2.90
same,antiprogestin activity in the rabbit uterus,[4]; in comparison to RU 486 and CDB-2914,strong antiprogestin activity
same,rbPR/rbGR,[5],1.89
"CC#C[C@]1(O)CC[C@H]2[C@@H]3CCC4=CC(=O)CCC4=C3[C@@H](c3ccc(N(C)C)cc3)C[C@@]21C [RU 486, 11β-[p-(Dimethylamino)phenyl]-17β-hydroxy-17-(1-propynyl)estra-4,9-dien-3-one]",Breast Apo %,[6],1.2 ± 0.6%
same,Uterus epithelium Apo %,[6],0.5 ± 0.1%
same,Uterus stroma Apo %,[6],0.5 ± 0.1%
same,differences in serum corticosterone between groups,[1],No differences
same,levels of serum cortisol versus control group,Serum cortisol in rats,no significant difference
same,anti-glucocorticoid receptor activity / glucocorticoid receptor binding,[3],moderately active
same,Follicular phase estrogen Lower?,[7]; Week 18,No
same,"Urinary estrogen, follicular phase, Mean",[7]; Week 18,67.4
same,Follicular phase estrogen Lower?,[7]; Week 36,No
same,"Urinary estrogen, follicular phase, Mean",[7]; Week 36,64.8
same,Breast Brdu-%,[8],0.9 ± 0.3%
same,Uterus epithelium Brdu-%,[8],12.6 ± 1.8%
same,Uterus stroma Brdu-%,[8],3.1 ± 1.0%
same,Decrease in luteal phase progesterone (number of animals),[9],9
same,No decrease in luteal phase progesterone (number of animals),[9],5
"CC(=O)O[C@]1(C(C)=O)CC[C@H]2[C@@H]3CCC4=CC(=O)CCC4=C3[C@@H](c3ccc(N(C)C)cc3)C[C@@]21C [CDB-2914, 17α-acetoxy-11β-(4-N,N-dimethylaminophenyl)-19-norpregna-4,9-dien-3,20-dione, reference compound]",anti-glucocorticoid receptor activity / glucocorticoid receptor binding,[3],moderately active
same,rabbit Biol. Act.,[4],1.00
same,rbPR/rbGR,[5],1.07
